Series [1] relates to Nucleic Acid. Nature of the series: Induction of DNA cleavage in Escherichia coli pBR322 at 5 uM in pH 7.0 phosphate buffer measured after of UV irradiation. It is filed as nucleic-acid assay.
Series [2] has as its system Nucleic Acid. Put plainly: Induction of DNA cleavage in Escherichia coli pBR322 at 10 uM in pH 7.0 phosphate buffer measured after of UV irradiation. It is filed as nucleic-acid assay.
The subject of series [3] is A-375. Put plainly: Toxicity in human A375 cells at <10 uM under dark condition incubated for 72 hrs by MTT assay. The format is cell-based. The conditions noted are these: a-375, 72 h. In general terms: Formazan colour is commonly taken as a measure of viable cells.
The test system of series [4] is A-375. Nature of the series: Phototoxicity in human A375 cells incubated for 72 hrs exposed to UV light for 10 mins by MTT assay. It is filed as functional.
For series [5], the system named is Nucleic Acid. Nature of the series: Induction of DNA damage in Escherichia coli pBR322 at 5 uM in pH 6.0 phosphate buffer measured after of UV irradiation. The format is nucleic-acid assay.
In series [6] the test system is Nucleic Acid. Put plainly: Induction of DNA cleavage in Escherichia coli pBR322 at 10 uM in pH 8.0 phosphate buffer measured after of UV irradiation. The format is nucleic-acid assay.
In series [7] the test system is Nucleic Acid. Put plainly: Induction of DNA cleavage in Escherichia coli pBR322 at 5 uM in pH 6.0 phosphate buffer measured after of UV irradiation. The format is nucleic-acid assay.
Series [8] relates to A-375. Put plainly: Drug uptake in human A375 cells at 30 uM incubated for 30 mins by differential interference contrast microscopy. It is filed as ADME, cell-based. Particulars: a-375, 0.5 h.
Series [9] concerns A-375. Nature of the series: Drug uptake in human A375 cells at 30 uM incubated for 30 mins by fluorescence microscopy. The format is ADME, cell-based. The conditions noted are these: a-375, 0.5 h.
Series [10] concerns Nucleic Acid. Nature of the series: Induction of photochemical DNA cleavage in Escherichia coli pBR322 assessed as disappearance of supercoiled DNA at 15 uM in pH 8.0 phosphate buffer after 10 mins of UV irradiation. It is filed as nucleic-acid assay.
Series [11] concerns Nucleic Acid. Put plainly: Induction of DNA cleavage in Escherichia coli pBR322 assessed as form3/form2 ratio at 15 uM at pH 6 to 9 after 10 mins of UV irradiation. It is filed as nucleic-acid assay.
In series [12] the test system is Nucleic Acid. Nature of the series: Induction of photochemical DNA cleavage in Escherichia coli pBR322 assessed as supercoiled DNA level at 15 uM in pH 6.0 phosphate buffer measured after 30 secs of UV irradiation. The format is nucleic-acid assay.
Series [13] relates to Nucleic Acid. Nature of the series: Induction of photochemical DNA cleavage in Escherichia coli pBR322 assessed as disappearance of supercoiled DNA at 15 uM in pH 7.0 phosphate buffer after 10 mins of UV irradiation. It is filed as nucleic-acid assay.
Series [14] has as its system Nucleic Acid. Put plainly: Induction of DNA cleavage in Escherichia coli pBR322 at 10 uM in pH 6.0 phosphate buffer measured after of UV irradiation. It is filed as nucleic-acid assay.
The test system of series [15] is Nucleic Acid. Nature of the series: Induction of photochemical DNA cleavage in Escherichia coli pBR322 assessed as supercoiled DNA level at 10 uM in pH 6.0 phosphate buffer measured after UV irradiation. It is filed as nucleic-acid assay.
Series [16] deals with Nucleic Acid. Nature of the series: Induction of photochemical DNA cleavage in Escherichia coli pBR322 assessed as disappearance of supercoiled DNA at 15 uM in pH 6.0 phosphate buffer after 10 mins of UV irradiation. It is filed as nucleic-acid assay.
For series [17], the system named is Nucleic Acid. Nature of the series: Induction of DNA cleavage in Escherichia coli pBR322 at 15 uM in pH 6.0 phosphate buffer measured after of UV irradiation. It is filed as nucleic-acid assay.
Series [18] concerns Nucleic Acid. Nature of the series: Induction of DNA cleavage in Escherichia coli pBR322 assessed as form3/form2 ratio after UV irradiation. The format is nucleic-acid assay.

Each structure is given as a SMILES string. The source made the active and inactive calls. The calls are words filed in the database; no cut-off is given here. Bounds are passed on as bounds.

As to `NCCCC[C@H](NC(=O)[C@@H](N)CCCCN)C(=O)Nc1ccc(C#Cc2c(F)c(F)nc(F)c2F)c(C#Cc2c(F)c(F)nc(F)c2F)c1.O=C(O)C(F)(F)F`, in the series on Nucleic Acid [1], the outcome was inactive. The outcome with Nucleic Acid [2] and in the series with Nucleic Acid [6] was Active. The values for the Activity entry in the series on A-375 [3], in the series on Nucleic Acid [5] and in the series on Nucleic Acid [7] were “Non-toxic”, 77% and 13%, respectively. The CC50 result in the series on A-375 [4] was “Active”. In addition, the Drug uptake result with A-375 [8] and with A-375 [9] was “Active” in each case.
With `NCCCC[C@H](NC(=O)[C@@H](N)CCCCN)C(=O)Nc1ccc(C#Cc2c(F)c(F)nc(F)c2F)cc1.O=C(O)C(F)(F)F`, the result with Nucleic Acid [10], in the series with Nucleic Acid [12], in the series with Nucleic Acid [13] and in the series with Nucleic Acid [16] was Active. Besides, the Ratio in the series with Nucleic Acid [11] was determined as 1. For the same compound, the Activity in the series with Nucleic Acid [2] is > 61%; in the series with A-375 [3], “Non-toxic”; with Nucleic Acid [14], 136%; in the series on Nucleic Acid [7], 32%; with Nucleic Acid [17], 155%. Also, the CC50 entry with A-375 [4] is “Active”. Besides, the result with Nucleic Acid [15] was inactive. Moreover, the Drug uptake entry with A-375 [8] and in the series with A-375 [9] was “Active” in each case.
Regarding `NCCCC[C@H](N)C(=O)NCCCC[C@H](N)C(=O)Nc1ccc(C#Cc2c(F)c(F)nc(F)c2F)c(C#Cc2c(F)c(F)nc(F)c2F)c1.O=C(O)C(F)(F)F`, the outcome in the series with Nucleic Acid [1] was inactive. For the same compound, the outcome in the series on Nucleic Acid [2] and in the series with Nucleic Acid [6] was Active. Besides, the Activity entry with A-375 [3] is “Non-toxic”; in the series on Nucleic Acid [5] it was 92%; in the series with Nucleic Acid [7], 17%. Also, the CC50 entry with A-375 [4] was “Active”. Moreover, the Drug uptake entry with A-375 [8] and in the series with A-375 [9] was “Active” in each case.
Take `CCN[C@H]1CO[C@@H](O[C@H]2[C@H](O[C@H]3C#C/C=C\C#C[C@]4(O)CC(=O)C(NC(=O)OC)=C3/C4=C\CSSSC)O[C@H](C)[C@@H](NO[C@H]3C[C@H](O)[C@H](SC(=O)c4c(C)c(I)c(O[C@@H]5O[C@@H](C)[C@H](O)[C@@H](OC)[C@H]5O)c(OC)c4OC)[C@@H](C)O3)[C@@H]2O)C[C@@H]1OC`: the result in the series on Nucleic Acid [18] was Active.

Source of the values: ChEMBL document CHEMBL2157896, “Engineering pH-gated transitions for selective and efficient double-strand DNA photocleavage in hypoxic tumors” (J Med Chem, 2011).
